# Patent US5488051A, “Substituted 5,6-dihydro-5-oxo-1,4-dithiino-(2,3-d)-pyridazine-2,3-dicarbonitriles, compositions containing them and their use as antimicrobials” (The Dow Chemical Company, priority 1994, dated 1996)
# Like-named read-outs stand apart in the source and are kept apart here.
# Legend:
# Bacillus subtilis (Bs) = assay: MIC for Bacillus subtilis, nutrient agar; assay type: cell-based, Bacillus subtilis ATCC 8473; conditions: 30° C., 48 hours, read-out: Minimum Inhibitory Concentration (MIC), Bs
# Protocol: (§1) The minimum inhibitory concentration (MIC) for the compounds listed in Table I is determined for 9 bacteria, using nutrient agar; and 7 yeast and fungi, using malt yeast agar. A one percent solution of the test compound is prepared in a mixture of acetone and water.
# (§2) Nutrient agar is prepared at pH 6.8, representing a neutral medium, and at pH 8.2, representing an alkaline medium. The nutrient agars are prepared by adding 23 g of nutrient agar to one-liter of deionized water. In addition, the alkaline medium is prepared by adjusting a 0.04M solution of N-[tris-(hydroxymethyl)methyl]-glycine buffered deionized water with concentrated sodium hydroxide to a pH of 8.5.
# (§3) The test tubes containing the malt yeast agar and the nutrient agar are cooled in a water bath until the temperature of the agar is 48° C. Then, an appropriate amount of the one percent solution of the test compound is added (except in the controls where no compound is added) to the respective test tubes so that the final concentrations are zero (0), 1.0, 2.5, 5, 10, 25, 50, 100, 250 and 500 parts per million of the test compound in each of the respective type of agar. The contents of each of the test tubes are then transferred to separate petri plates. After drying for 24 hours, the petri plates containing nutrient agar are inoculated with bacteria and those containing malt yeast agar are inoculated with yeast and fungi.
# (§4) The inoculation with bacteria is accomplished by using the following procedure. Twenty-four hour-cultures of each of the bacteria are prepared by incubating the respective bacteria in tubes containing nutrient broth for 24 hours at 30° C. in a shaker. Dilutions of each of the 24 hour-cultures are made so that nine separate suspensions (one for each of the nine test bacteria) are made, each containing 10^8 colony forming units (CFU) per mL of suspension of a particular bacteria. Aliquots of 0.3 mL of each of the bacterial suspensions are used to fill the individual wells of Steer's Replicator. For each microbial suspension, 0.3 mL was used to fill three wells (i.e., three wells of 0.3 mL each) so that for the nine different bacteria, 27 wells are filled. The Steer's Replicator is then used to inoculate both the neutral and alkaline pH nutrient agar petri plates.
# (§5) The inoculated petri plates are incubated at 30° C. for 48 hours and then read to determine if the test compound which is incorporated into the agar prevented growth of the respective bacteria.
# (§6) Table II list the bacteria, yeast and fungi used in the MIC test described above along with their respective American Type Culture Collection (ATCC) identification numbers.
# Escherichia coli (Ec) = assay: MIC for Escherichia coli, nutrient agar; assay type: cell-based, Escherichia coli ATCC 11229; conditions: 30° C., 48 hours, read-out: Minimum Inhibitory Concentration (MIC), Ec
# Protocol: as §1, §2, §3, §4, §5, §6
# [1] = test system: Pseudomonas aeruginosa (Pa); assay: MIC for Pseudomonas aeruginosa, nutrient agar; assay type: cell-based, Pseudomonas aeruginosa ATCC 10145; conditions: 48 hours, read-out: Minimum Inhibitory Concentration (MIC), Pa
# Protocol: as §1, §2, §3, §4, §5, §6
# Candida albicans (Ca) = assay: MIC for Candida albicans, malt yeast agar; assay type: cell-based, Candida albicans ATCC 10231; conditions: malt yeast agar; 30° C., 48 hours for yeast; read-out: Minimum Inhibitory Concentration (MIC), Ca
# Protocol: as §1
# (§7) Malt yeast agar is prepared by adding 3 g yeast extract and 45 g malt agar per liter of deionized water. The specific agar is dispensed in 30 mL aliquots into 25×200 mm test tubes, capped and autoclaved for 15 minutes at 115° C.
# as §3
# (§8) The inoculation with the yeast and fungi is accomplished as follows. Cultures of yeast and fungi are incubated for seven days on malt yeast agar at 30° C. These cultures are used to prepare suspensions by the following procedure. A suspension of each organism is prepared by adding 10 mL of sterile saline and 10 microliters of octylphenoxy polyethoxy ethanol to the agar slant of yeast or fungi. The sterile saline/octylphenoxy polyethoxy ethanol solution is then agitated with a sterile swab to suspend the microorganism grown on the slant. Each resulting suspension is diluted into sterile saline (1 part suspension: 9 parts sterile saline). Aliquots of these dilutions are placed in individual wells of Steer's Replicator and petri plates inoculated as previously described. The petri plates are incubated at 30° C. and read after 48 hours for yeast and 72 hours for fungi.
# as §6
# Saccharomyces cerevisiae = assay: MIC for Saccharomyces cerevisiae, malt yeast agar; assay type: cell-based, Saccharomyces cerevisiae ATCC 4105; conditions: malt yeast agar, 30° C., 48 hours for yeast, read-out: Minimum Inhibitory Concentration (MIC), Sc
# Protocol: as §1, §7, §3, §8, §6
# Proteus vulgaris (Pv) = assay: MIC for Proteus vulgaris, nutrient agar; assay type: cell-based, Proteus vulgaris ATCC 881; conditions: 30° C., 48 hours, read-out: Minimum Inhibitory Concentration (MIC), Pv
# Protocol: as §1, §2, §3, §4, §5, §6
# Aspergillus niger (An) = assay: MIC for Aspergillus niger, malt yeast agar; assay type: cell-based, Aspergillus niger ATCC 16404; conditions: malt yeast agar; 30° C., 72 hours for fungi; read-out: Minimum Inhibitory Concentration (MIC), An
# Protocol: as §1, §7, §3, §8, §6
# Salmonella choleraesuis = assay: MIC for Salmonella choleraesuis, nutrient agar; assay type: cell-based, Salmonella choleraesuis ATCC 10708; conditions: Salmonella enterica, 30° C., 48 hours, read-out: Minimum Inhibitory Concentration (MIC), SC
# Protocol: as §1, §2, §3, §4, §5, §6
# [2] = test system: Aureobasidium pullulan (Ap); assay: MIC for Aureobasidium pullulan, malt yeast agar; assay type: cell-based, Aureobasidium pullulan ATCC 16622; conditions: malt yeast agar; 30° C.; 48 hours for yeast and 72 hours for fungi; read-out: Minimum Inhibitory Concentration (MIC), Ap
# Protocol: as §1, §7, §3, §8, §6
# Fusarium oxysporum (Fo) = assay: MIC for Fusarium oxysporum, malt yeast agar; assay type: cell-based, Fusarium oxysporum ATCC 48112; conditions: malt yeast agar; 30° C., 72 hours for fungi; read-out: Minimum Inhibitory Concentration (MIC), Fo
# Protocol: as §1, §7, §3, §8, §6
# [3] = test system: Pseudomonas aeruginosa (PRD-10); assay: MIC for Pseudomonas aeruginosa PRD-10, nutrient agar; assay type: cell-based, Pseudomonas aeruginosa ATCC 15442; conditions: 30° C., 48 hours, read-out: Minimum Inhibitory Concentration (MIC), PRD
# Protocol: as §1, §2, §3, §4, §5, §6
# [4] = test system: Staphylococcus aureus (Sa); assay: MIC for Staphylococcus aureus, nutrient agar; assay type: cell-based, Staphylococcus aureus ATCC 6538; conditions: 30° C., 48 hours, read-out: Minimum Inhibitory Concentration (MIC), Sa
# Protocol: as §1, §2, §3, §4, §5, §6
# [5] = test system: Penicillium chrysogenum (Pc); assay: MIC for Penicillium chrysogenum, malt yeast agar; assay type: cell-based, Penicillium chrysogenum ATCC 9480; conditions: malt yeast agar; 30° C., 72 hours for fungi; read-out: Minimum Inhibitory Concentration (MIC), PC
# Protocol: as §1, §7, §3, §8, §6
# [6] = test system: Klebsiella pneumonias (Kp); assay: MIC for Klebsiella pneumonias, nutrient agar; assay type: cell-based, Klebsiella pneumonias ATCC 8308; conditions: 30° C., 48 hours, read-out: Minimum Inhibitory Concentration (MIC), Kp
# Protocol: as §1, §2, §3, §4, §5, §6
# [7] = test system: Enterobacter aerogenes (Ea); assay: MIC for Enterobacter aerogenes, nutrient agar; assay type: cell-based, Enterobacter aerogenes ATCC 13048; conditions: Klebsiella aerogenes, nutrient agar, 30° C., 48 hours, read-out: Minimum Inhibitory Concentration (MIC), Ea
# Protocol: as §1, §2, §3, §4, §5, §6
# Trichoderma viride (Tv) = assay: MIC for Trichoderma viride, malt yeast agar; assay type: cell-based, Trichoderma viride ATCC 8678; conditions: malt yeast agar; 30° C., 72 hours for fungi; read-out: Minimum Inhibitory Concentration (MIC), Tv
# Protocol: as §1, §7, §3, §8, §6
Structure (SMILES),"MIC (Bacillus subtilis (Bs); pH 6.8, nutrient agar) [µg/mL]","MIC (Bacillus subtilis (Bs); pH 8.2, nutrient agar) [µg/mL]","MIC (Escherichia coli (Ec); pH 6.8, nutrient agar) [µg/mL]","MIC (Escherichia coli (Ec); pH 8.2, nutrient agar) [µg/mL]","MIC ([1]; pH 6.8, 30° C.) [µg/mL]","MIC ([1]; pH 8.2, 30° C.) [µg/mL]",MIC (Candida albicans (Ca)) [µg/mL],MIC (Saccharomyces cerevisiae) [µg/mL],"MIC (Proteus vulgaris (Pv); pH 6.8, nutrient agar) [µg/mL]","MIC (Proteus vulgaris (Pv); pH 8.2, nutrient agar) [µg/mL]",MIC (Aspergillus niger (An)) [µg/mL],"MIC (Salmonella choleraesuis; pH 6.8, nutrient agar) [µg/mL]","MIC (Salmonella choleraesuis; pH 8.2, nutrient agar) [µg/mL]",MIC [2] [µg/mL],MIC (Fusarium oxysporum (Fo)) [µg/mL],"MIC ([3]; pH 6.8, nutrient agar) [µg/mL]","MIC ([3]; pH 8.2, nutrient agar) [µg/mL]","MIC ([4]; pH 6.8, nutrient agar) [µg/mL]","MIC ([4]; pH 8.2, nutrient agar) [µg/mL]",MIC [5] [µg/mL],further results
"N#CC1=C(C#N)Sc2c(cnn(-c3ccccc3)c2=O)S1 [A, 5,6-Dihydro-5-oxo-6-phenyl-1,4-dithiino(2,3-d)pyridazine-2,3-dicarbonitrile]",50,500,50,> 500,250,> 500,25,< 10,50,> 500,25,100,> 500,25,25,500,> 500,25,< 10,25,"MIC ([6]; pH 6.8, nutrient agar): 50 µg/mL; MIC ([6]; pH 8.2, nutrient agar): > 500 µg/mL; MIC ([7]; pH 6.8): 250 µg/mL; MIC ([7]; pH 8.2): > 500 µg/mL; MIC (Trichoderma viride (Tv)): 25 µg/mL"
"N#CC1=C(C#N)Sc2c(cnn(-c3ccc(Cl)cc3)c2=O)S1 [D, 5,6-dihydro-6-(4-chlorophenyl)-5-oxo-1,4-dithiino-(2,3-d)-pyridazine-2,3-dicarbonitrile]",25,250,100,> 500,> 500,> 500,10,10,100,> 500,10,100,> 500,10,10,500,> 500,> 500,> 500,25,"MIC ([6]; pH 6.8, nutrient agar): > 500 µg/mL; MIC ([6]; pH 8.2, nutrient agar): > 500 µg/mL; MIC ([7]; pH 6.8): > 500 µg/mL; MIC ([7]; pH 8.2): > 500 µg/mL; MIC (Trichoderma viride (Tv)): 25 µg/mL"
